Target: T1, human kinase Mps-1 (Homo sapiens, UniProt P33981)
T1 construct: N-terminally GST-tagged human full length recombinant Mps-1 kinase; purchased Invitrogen, Karslruhe, Germany PV4071
T1 sequence (P33981 1-857): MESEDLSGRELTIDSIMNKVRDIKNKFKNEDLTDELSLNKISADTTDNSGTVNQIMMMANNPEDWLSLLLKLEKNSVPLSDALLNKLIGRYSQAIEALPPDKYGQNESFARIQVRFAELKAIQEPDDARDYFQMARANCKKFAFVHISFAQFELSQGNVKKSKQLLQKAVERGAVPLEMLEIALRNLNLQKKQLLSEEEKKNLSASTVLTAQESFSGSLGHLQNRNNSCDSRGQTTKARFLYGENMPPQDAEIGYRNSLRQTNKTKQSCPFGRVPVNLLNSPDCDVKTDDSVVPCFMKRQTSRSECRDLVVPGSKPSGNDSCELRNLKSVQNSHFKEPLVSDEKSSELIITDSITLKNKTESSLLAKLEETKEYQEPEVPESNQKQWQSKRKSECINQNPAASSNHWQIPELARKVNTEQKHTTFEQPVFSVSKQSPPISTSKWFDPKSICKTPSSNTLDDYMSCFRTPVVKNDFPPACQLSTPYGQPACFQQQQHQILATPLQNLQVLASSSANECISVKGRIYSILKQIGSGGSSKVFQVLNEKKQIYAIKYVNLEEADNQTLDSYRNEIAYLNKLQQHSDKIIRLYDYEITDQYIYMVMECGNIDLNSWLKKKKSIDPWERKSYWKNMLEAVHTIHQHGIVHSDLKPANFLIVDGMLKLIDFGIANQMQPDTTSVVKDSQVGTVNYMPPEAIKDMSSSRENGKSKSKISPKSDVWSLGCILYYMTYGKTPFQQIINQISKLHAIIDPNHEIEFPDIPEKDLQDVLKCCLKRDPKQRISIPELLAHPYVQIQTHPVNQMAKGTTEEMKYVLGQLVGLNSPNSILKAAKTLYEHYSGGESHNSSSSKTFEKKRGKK
Assay: Mps-1 kinase assay (TR-FRET, 10 μM ATP)
Type: biochemical
Details: N-terminally GST-tagged human full length recombinant Mps-1, read-out: Mps-1 Inhibition, IC50 (Assay with 10 μM ATP)
Protocol: The human kinase Mps-1 phosphorylates a biotinylated substrate peptide. Detection of the phosphorylated product is achieved by time-resolved fluorescence resonance energy transfer (TR-FRET) from Europium-labelled anti-phospho-Serine/Threonine antibody as donor to streptavidin Labelled with cross-linked allophycocyanin (SA-XLent) as acceptor. Compounds are tested for their inhibition of the kinase activity.
N-terminally GST-tagged human full length recombinant Mps-1 kinase (purchased from Invitrogen, Karslruhe, Germany, cat. no PV4071) was used. As substrate for the kinase reaction a biotinylated peptide of the amino-acid sequence PWDPDDADITEILG (C-terminus in amide form, purchased from Biosynthan GmbH, Berlin) was used.
For the assay 50 nl of a 100-fold concentrated solution of the test compound in DMSO was pipetted into a black low volume 384 well microtiter plate (Greiner Bio-One, Frickenhausen, Germany), 2 μl of a solution of Mps-1 in assay buffer [0.1 mM sodium-ortho-vanadate, 10 mM MgCl2, 2 mM DTT, 25 mM Hepes pH 7.7, 0.05% BSA, 0.001% Pluronic F-127] were added and the mixture was incubated for 15 min at 22° C. to allow pre-binding of the test compounds to Mps-1 before the start of the kinase reaction. Then the kinase reaction was started by the addition of 3 μl of a solution of […] (ATP, 16.7 μM=>final conc. in the 5 μl assay volume is 10 μM) and peptide substrate (1.67 μM=>final conc. in the 5 μl assay volume is 1 μM) in assay buffer and the resulting mixture was incubated for a reaction time of 60 min at 22° C. The concentration of Mps-1 in the assay was adjusted to the activity of the enzyme lot and was chosen appropriate to have the assay in the linear range, typical enzyme concentrations were in the range of about 1 nM (final conc. in the 5 μl assay volume). The reaction was stopped by the addition of 3 μl of a solution of HTRF detection reagents (100 mM Hepes pH 7.4, 0.1% BSA, 40 mM EDTA, 140 nM Streptavidin-XLent [#61GSTXLB, Fa. Cis Biointernational, Marcoule, France], 1.5 nM anti-phospho(Ser/Thr)-Europium-antibody [#AD0180, PerkinElmer LAS, Rodgau-Jügesheim, Germany].
The resulting mixture was incubated 1 h at 22° C. to allow the binding of the phosphorylated peptide to the anti-phospho(Ser/Thr)-Europium-antibody. Subsequently the amount of phosphorylated substrate was evaluated by measurement of the resonance energy transfer from the Europium-labelled anti-phospho(Ser/Thr) antibody to the Streptavidin-XLent. Therefore, the fluorescence emissions at 620 nm and 665 nm after excitation at 350 nm was measured in a Viewlux TR-FRET reader (PerkinElmer LAS, Rodgau-Jügesheim, Germany). The “blank-corrected normalized ratio” (a Viewlux specific readout, similar to the traditional ratio of the emissions at 665 nm and at 622 nm, in which blank and Eu-donor crosstalk are subtracted from the 665 nm signal before the ratio is calculated) was taken as the measure for the amount of phosphorylated substrate. The data were normalised (enzyme reaction without inhibitor=0% inhibition, all other assay components but no enzyme=100% inhibition).

Row | IC50 [nM] | Compound
1 | ≤ 1 | COc1cc(C(=O)N2CCOCC2)ccc1Nc1nc2ccc(-c3ccc(NC(=O)Cc4ccc(F)cc4)cc3)nn2n1 [Example 1.1, 2-(4-fluorophenyl)-N-[4-(2-{[2-methoxy-4-(morpholin-4-ylcarbonyl)phenyl]amino}[1,2,4]triazolo[1,5-b]pyridazin-6-yl)phenyl]acetamide]
2 | ≤ 1 | COc1cc(C(C)(C)O)ccc1Nc1nc2ccc(-c3ccc(NC(=O)Cc4ccc(F)cc4)cc3)nn2n1 [Example 1.2, 2-(4-fluorophenyl)-N-[4-(2-{[4-(2-hydroxypropan-2-yl)-2-methoxyphenyl]amino}[1,2,4]triazolo[1,5-b]pyridazin-6-yl)phenyl]acetamide]
3 | ≤ 1 | N#Cc1ccccc1Nc1nc2cnc(-c3ccc(NC(=O)Cc4ccc(F)cc4)cc3)cn2n1 [Example 2.1, N-(4-{2-[(2-cyanophenyl)amino][1,2,4]triazolo[1,5-a]pyrazin-6-yl}phenyl)-2-(4-fluorophenyl)acetamide]
4 | ≤ 1 | N#Cc1c(F)cccc1Nc1nc2cnc(-c3ccc(NC(=O)Cc4ccc(F)cc4)cc3)cn2n1 [Example 2.2, N-(4-{2-[(2-cyano-3-fluorophenyl)amino][1,2,4]triazolo[1,5-a]pyrazin-6-yl}phenyl)-2-(4-fluorophenyl)acetamide]
5 | 2.6 | N#Cc1ccccc1Nc1nc2cnc(-c3ccc(NC(=O)Cc4ccccc4)cc3)cn2n1 [Example 2.3, N-(4-{2-[(2-cyanophenyl)amino][1,2,4]triazolo[1,5-a]pyrazin-6-yl}phenyl)-2-phenylacetamide]
6 | ≤ 1 | COc1cc(N2CCN(C)CC2)ccc1Nc1nc2cnc(-c3ccc(NC(=O)Cc4ccc(F)cc4)cc3)cn2n1 [Example 2.4, 2-(4-fluorophenyl)-N-[4-(2-{[2-methoxy-4-(4-methylpiperazin-1-yl)phenyl]amino}[1,2,4]triazolo[1,5-a]pyrazin-6-yl)phenyl]acetamide]
7 | ≤ 1 | N#Cc1c(F)cccc1Nc1nc2cnc(-c3ccc(NC(=O)Cc4ccccc4)cc3)cn2n1 [Example 2.5, N-(4-{2-[(2-cyano-3-fluorophenyl)amino][1,2,4]triazolo[1,5-a]pyrazin-6-yl}phenyl)-2-phenylacetamide]
8 | 2.1 | N#Cc1ccccc1Nc1nc2cnc(-c3ccc(NC(=O)Cc4ccc(F)c(F)c4)cc3)cn2n1 [Example 2.6, N-(4-{2-[(2-cyanophenyl)amino][1,2,4]triazolo[1,5-a]pyrazin-6-yl}phenyl)-2-(3,4-difluorophenyl)acetamide]
9 | 2.9 | N#Cc1c(F)cccc1Nc1nc2cnc(-c3ccc(NC(=O)Cc4ccc(F)c(F)c4)cc3)cn2n1 [Example 2.7, N-(4-{2-[(2-cyano-3-fluorophenyl)amino][1,2,4]triazolo[1,5-a]pyrazin-6-yl}phenyl)-2-(3,4-difluorophenyl)acetamide]
10 | ≤ 1 | COc1cc(S(C)(=O)=O)ccc1Nc1nc2cnc(-c3ccc(NC(=O)Cc4ccc(F)cc4)cc3)cn2n1 [Example 2.8, 2-(4-fluorophenyl)-N-[4-(2-{[2-methoxy-4-(methylsulfonyl)phenyl]amino}[1,2,4]triazolo[1,5-a]pyrazin-6-yl)phenyl]acetamide]
11 | 33.5 | Cc1cc(-c2cn3nc(Nc4ccccc4C#N)nc3cn2)cc(C)c1O [Example 3.1, 2-{[6-(4-hydroxy-3,5-dimethylphenyl)[1,2,4]triazolo[1,5-a]pyrazin-2-yl]amino}benzonitrile]
12 | 22.4 | N#Cc1ccccc1Nc1nc2cnc(-c3ccc(NC(=O)CC4CC4)cc3)cn2n1 [Example 3.2, N-(4-{2-[(2-cyanophenyl)amino][1,2,4]triazolo[1,5-a]pyrazin-6-yl}phenyl)-2-cyclopropylacetamide]
13 | 84.1 | N#Cc1ccccc1Nc1nc2cnc(-c3cccc(C(=O)NC4CC4)c3)cn2n1 [Example 3.3, 3-{2-[(2-cyanophenyl)amino][1,2,4]triazolo[1,5-a]pyrazin-6-yl}-N-cyclopropylbenzamide]
14 | 206 | CCNC(=O)c1cccc(-c2cn3nc(Nc4ccccc4C#N)nc3cn2)c1 [Example 3.4, 3-{2-[(2-cyanophenyl)amino][1,2,4]triazolo[1,5-a]pyrazin-6-yl}-N-ethylbenzamide]
15 | 35.4 | N#Cc1ccccc1Nc1nc2cnc(-c3cccc(C(=O)NC4CCCC4)c3)cn2n1 [Example 3.5, 3-{2-[(2-cyanophenyl)amino][1,2,4]triazolo[1,5-a]pyrazin-6-yl}-N-cyclopentylbenzamide]
16 | 14.6 | N#Cc1c(F)cccc1Nc1nc2cnc(-c3ccc(NC(=O)CC4CC4)cc3)cn2n1 [Example 3.6, N-(4-{2-[(2-cyano-3-fluorophenyl)amino][1,2,4]triazolo[1,5-a]pyrazin-6-yl}phenyl)-2-cyclopropylacetamide]
17 | 443 | N#Cc1ccccc1Nc1nc2cnc(-c3ccc(N)cc3)cn2n1 [Example 3.7, 2-{[6-(4-aminophenyl)[1,2,4]triazolo[1,5-a]pyrazin-2-yl]amino}benzonitrile]
18 | 71.6 | COc1ccccc1Nc1nc2cnc(-c3cc(C)c(O)c(C)c3)cn2n1 [Example 3.8, 4-{2-[(2-methoxyphenyl)amino][1,2,4]triazolo[1,5-a]pyrazin-6-yl}-2,6-dimethylphenol]
19 | 69 | N#Cc1ccccc1Nc1nc2cnc(-c3cccc(C(=O)NC4CCCCC4)c3)cn2n1 [Example 3.9, 3-{2-[(2-cyanophenyl)amino][1,2,4]triazolo[1,5-a]pyrazin-6-yl}-N-cyclohexylbenzamide]
20 | ≤ 1 | COc1cc(C(=O)N2CCOCC2)ccc1Nc1nc2ccc(-c3ccc(NC(=O)Cc4ccc(F)cc4)cc3)cc2s1 [Example 4.1, 2-(4-fluorophenyl)-N-[4-(2-{[2-methoxy-4-(morpholin-4-ylcarbonyl)phenyl]amino}-1,3-benzothiazol-6-yl)phenyl]acetamide]
21 | 2.9 | COc1cc(S(C)(=O)=O)ccc1Nc1nc2ccc(-c3ccc(NC(=O)Cc4ccc(F)cc4)cc3)cc2s1 [Example 4.2, 2-(4-fluorophenyl)-N-[4-(2-{[2-methoxy-4-(methylsulfonyl)phenyl]amino}-1,3-benzothiazol-6-yl)phenyl]acetamide]
22 | 8.6 | Nc1nc2ccc(-c3ccc(NC(=O)Cc4ccc(F)cc4)cc3)cc2s1 [Example 4.3, N-[4-(2-amino-1,3-benzothiazol-6-yl)phenyl]-2-(4-fluorophenyl)acetamide]
23 | ≤ 1 | COc1cc(S(C)(=O)=O)cnc1Nc1cn2cc(-c3ccc(NC(=O)[C@H](C)c4ccc(F)cc4)cc3)ccc2n1 [Example 7.1, (2R)-2-(4-fluorophenyl)-N-[4-(2-{[3-methoxy-5-(methylsulfonyl)pyridin-2-yl]amino}imidazo[1,2-a]pyridin-6-yl)phenyl]propanamide]

Reference: patent publication US20160207928A1, “NOVEL COMPOUNDS FOR THE TREATMENT OF CANCER” (BAYER PHARMA AKTIENGESELLSCHAFT, priority 2013, published 2016)
